Measured values as given in patent US6723897B2, “Methods for controlling gibberellin levels” (Monsanto Technology, LLC, priority 1998, dated 2004).

Tests used:
[1] = test system: GA-deficient (Line 719, R5) soybeans; assay: Hilum treatment with GA15, GA19, GA24, GA44, hypocotyl length, GA-deficient soybean; format: in vivo, Glycine max; conditions: 10 μg/seed, 5 DAP
Text: Transgenic seeds are fifth generation (R5) line 719 seeds.

A3237 soybean = assay: Stature of soybean plants with ancymidol soil drench; format: in vivo, Glycine max
Experimental: R1 lines are also evaluated for stature reduction, a key indicator of GA-deficiency in soybean. R1 seeds are grown as described above. Plant height is routinely measured at approximately one week after planting. Four lines (696, 719, 720 and 724) are identified that had overall stature reduction relative to the control (A3237) line and the control line plus ancymidol (10 mg/L), an inhibitor of GA (Table 3). As these are segregating from R1 seeds, the distribution stature of the plants is evaluated. Three lines (719, 720 and 724) have a population of strong dwarf soybean plants (<25% the height of the average control plant). The segregation ratio of R1 pMON29801 (FMV/asCPScc) (FIG. 7) soybean plants is checked by phenotype (stature) and for the expression of CP4 5-enolpyruvylshikimate-3-phosphate synthase by ELISA (Rogan et al., J. Food Control, in Press (1998)). The results for both of these analyses are fairly consistent (Table 4): Line 696 segregated at about 1:3, line 719 at about 1:2, line 720 at about 2:1 and line 724 at about 3:1. Thus, only line 724 is what could be considered normal Mendelian segregation.
In soybean, GAs increase through mid-seed development, and then decline as the seed matures (Birnberg et al. (1986) Plant Physiol. 82:241-246). This trend is similar to that observed in other legumes. […] This is supported by the following observations (data not shown). […] This is well after germination and axis elongation have begun. Both of these observations support the hypothesis that soybean seed germination and early axis elongation are not dependent on de novo gibberellin biosynthesis.

With `C=C1C[C@]23C[C@@]1(O)CC[C@H]2[C@]1(C=O)CCC[C@@](C)(C(=O)O)[C@H]1[C@@H]3C(=O)O` [GA19] the “hypocotyl height of GA-deficient (Line 719) soybeans (FIG. 41)” value (“hypocotyl height of GA-deficient” for short) [1] was “restored normal or greater hypocotyl height”.
In the case of `C=C1C[C@]23C[C@H]1CC[C@H]2[C@]1(C=O)CCC[C@@](C)(C(=O)O)[C@H]1[C@@H]3C(=O)O` [GA24], the “hypocotyl height of GA-deficient” value [1] is reported as “restored normal or greater hypocotyl height”.
In the case of `C=C1C[C@]23C[C@@]1(O)CC[C@H]2[C@@]12CCC[C@@](C)(C(=O)OC1)[C@H]2[C@@H]3C(=O)O` [GA44], the “hypocotyl height of GA-deficient” value [1] is reported as “restored normal or greater hypocotyl height”.
`COc1ccc(C(O)(c2cncnc2)C2CC2)cc1` (stereo not shown) [ancymidol] was tested, and the “Height (% of control)” value (A3237 soybean; 7 DAP, ancymidol 10 mg/L) was 14 % of control, the “Frequency of heights relative to A3237 control (%), 0-25%” value (A3237 soybean; ancymidol soil drench 10 mg/L) was 100% and the “Frequency of heights relative to A3237 control (%), 25-50%” value (A3237 soybean; ancymidol soil drench 10 mg/L) was 0%. The “Frequency of heights relative to A3237 control (%), 50-75%” value (A3237 soybean; ancymidol soil drench 10 mg/L) was 0%, the “Frequency of heights relative to A3237 control (%), 75-100%” value (A3237 soybean; ancymidol soil drench 10 mg/L) was 0% and the soybean axis elongation (A3237 soybean; first one to two days of growth, data not shown) was “does not reduce soybean axis elongation”.
GA15 was tested, and the “hypocotyl height of GA-deficient” value [1] was “restored normal or greater hypocotyl height”.
